Reference: PubChem BioAssay (NCI)
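96-well plates; 48 h exposure; 5 concentrations. Endpoints by linear interpolation between flanking doses. Not reached: highest tested concentration assigned. GI50 marks 50% less growth. The concentration for full growth arrest is given as TGI.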

Key:
Test in all cases: NCI-60 cell line screen, 48 h
M14 melanoma = system: M14 melanoma
SNB-75 CNS = system: SNB-75 CNS
HOP-62 NSCLC = system: HOP-62 NSCLC
BT-549 breast = system: BT-549 breast
COLO 205 colon = system: COLO 205 colon
SK-MEL-5 melanoma = system: SK-MEL-5 melanoma
TK-10 renal = system: TK-10 renal
RXF 393 renal = system: RXF 393 renal
MDA-MB-231 breast = system: MDA-MB-231 breast
HCC-2998 colon = system: HCC-2998 colon
HS 578T breast = system: HS 578T breast
OVCAR-4 ovarian = system: OVCAR-4 ovarian
OVCAR-3 ovarian = system: OVCAR-3 ovarian
HCT-116 colon = system: HCT-116 colon
NCI/ADR-RES ovarian = system: NCI/ADR-RES ovarian
SK-MEL-28 melanoma = system: SK-MEL-28 melanoma
MOLT-4 leukemia = system: MOLT-4 leukemia
OVCAR-8 ovarian = system: OVCAR-8 ovarian
SNB-19 CNS = system: SNB-19 CNS
CAKI-1 renal = system: CAKI-1 renal
HOP-92 NSCLC = system: HOP-92 NSCLC
K-562 leukemia = system: K-562 leukemia
IGROV1 ovarian = system: IGROV1 ovarian
A549 NSCLC = system: A549 NSCLC
SR leukemia = system: SR leukemia
786-0 renal = system: 786-0 renal
MCF7 breast = system: MCF7 breast
EKVX NSCLC = system: EKVX NSCLC
HL-60(TB) leukemia = system: HL-60(TB) leukemia
UACC-62 melanoma = system: UACC-62 melanoma
T-47D breast = system: T-47D breast
ACHN renal = system: ACHN renal
UO-31 renal = system: UO-31 renal
DU-145 prostate = system: DU-145 prostate
OVCAR-5 ovarian = system: OVCAR-5 ovarian
NCI-H23 lung = system: NCI-H23 lung
KM12 colon = system: KM12 colon
HCT-15 colon = system: HCT-15 colon
HT29 colon = system: HT29 colon
PC-3 prostate = system: PC-3 prostate
NCI-H460 lung = system: NCI-H460 lung
SF-295 CNS = system: SF-295 CNS
SW-620 colon = system: SW-620 colon
SK-OV-3 ovarian = system: SK-OV-3 ovarian
CCRF-CEM leukemia = system: CCRF-CEM leukemia
NCI-H226 lung = system: NCI-H226 lung
UACC-257 melanoma = system: UACC-257 melanoma
U251 CNS = system: U251 CNS
LOX IMVI melanoma = system: LOX IMVI melanoma
NCI-H522 lung = system: NCI-H522 lung
MDA-MB-435 = system: MDA-MB-435
SF-268 CNS = system: SF-268 CNS
SF-539 CNS = system: SF-539 CNS
SK-MEL-2 melanoma = system: SK-MEL-2 melanoma
A498 renal = system: A498 renal
SN12C renal = system: SN12C renal
RPMI-8226 leukemia = system: RPMI-8226 leukemia
MALME-3M melanoma = system: MALME-3M melanoma

With CCc1ccc(COC(=O)C2=C(C)NC(C)=C(C(=O)OCc3ccc(CC)cn3)C2C2=COCCO2)nc1 the TGI (M14 melanoma) was 31.1 µM, the TGI (SNB-75 CNS) was 39.3 µM and the TGI (HOP-62 NSCLC) was 37.8 µM. It also gave a TGI (BT-549 breast) of 31.1 µM, a TGI (COLO 205 colon) of 29.6 µM and a TGI (SK-MEL-5 melanoma) of 26.1 µM. For the same compound, the TGI (TK-10 renal) was > 100 µM, the TGI (RXF 393 renal) was 37.3 µM and the TGI (MDA-MB-231 breast) was 45.8 µM. For the same compound, the TGI (HCC-2998 colon) was 37.7 µM, the TGI (HS 578T breast) was 37.7 µM and the TGI (OVCAR-4 ovarian) was 66.9 µM. It also gave a TGI (OVCAR-3 ovarian) of 54.7 µM, a TGI (HCT-116 colon) of 31 µM and a TGI (NCI/ADR-RES ovarian) of 63.4 µM. For the same compound, the TGI (SK-MEL-28 melanoma) was 35 µM, the TGI (MOLT-4 leukemia) was 33.6 µM and the TGI (OVCAR-8 ovarian) was > 100 µM. For the same compound, the TGI (SNB-19 CNS) was 54.5 µM, the TGI (CAKI-1 renal) was 88.5 µM and the TGI (HOP-92 NSCLC) was 43 µM. The TGI (K-562 leukemia) was 53.7 µM, the TGI (IGROV1 ovarian) was > 100 µM and the TGI (A549 NSCLC) was > 100 µM. For the same compound, the TGI (SR leukemia) was > 100 µM, the TGI (786-0 renal) was 69.4 µM and the TGI (MCF7 breast) was 43 µM. The TGI (EKVX NSCLC) was 65.1 µM, the TGI (HL-60(TB) leukemia) was 66.7 µM and the TGI (UACC-62 melanoma) was 36.7 µM. For the same compound, the TGI (T-47D breast) was 36.1 µM, the TGI (ACHN renal) was 89.7 µM and the TGI (UO-31 renal) was 60.4 µM. For the same compound, the TGI (DU-145 prostate) was > 100 µM, the TGI (OVCAR-5 ovarian) was 69.3 µM and the TGI (NCI-H23 lung) was 51 µM. It also gave a TGI (KM12 colon) of 87.1 µM, a TGI (HCT-15 colon) of 71.4 µM and a TGI (HT29 colon) of 43.7 µM. It also gave a TGI (PC-3 prostate) of 43.1 µM, a TGI (NCI-H460 lung) of 91.3 µM and a TGI (SF-295 CNS) of 61.3 µM. For the same compound, the TGI (SW-620 colon) was 80.4 µM, the TGI (SK-OV-3 ovarian) was 45.8 µM and the TGI (CCRF-CEM leukemia) was 49.8 µM. It also gave a TGI (NCI-H226 lung) of 40 µM, a TGI (UACC-257 melanoma) of 41.5 µM and a TGI (U251 CNS) of 35.4 µM. For the same compound, the TGI (LOX IMVI melanoma) was 29.1 µM, the TGI (NCI-H522 lung) was 40.7 µM and the TGI (MDA-MB-435) was 38.3 µM. The TGI (SF-268 CNS) was > 100 µM and the TGI (SF-539 CNS) was 27.7 µM.

In the case of Cc1cc(Nc2nc(N[C@@H](C)c3ncc(F)cn3)ncc2Cl)n[nH]1, the GI50 (M14 melanoma) is reported as 20.7 µM, the TGI (M14 melanoma) is reported as > 100 µM and the GI50 (SNB-75 CNS) is reported as 8.85 µM. The TGI (SNB-75 CNS) was 36.4 µM, the GI50 (SK-MEL-2 melanoma) was 28.7 µM and the TGI (SK-MEL-2 melanoma) was 92.1 µM. For the same compound, the GI50 (HOP-62 NSCLC) was 20 µM, the TGI (HOP-62 NSCLC) was > 100 µM and the GI50 (BT-549 breast) was 9.81 µM. For the same compound, the TGI (BT-549 breast) was > 100 µM, the GI50 (COLO 205 colon) was 17.8 µM and the TGI (COLO 205 colon) was 48.9 µM. For the same compound, the GI50 (SK-MEL-5 melanoma) was 26 µM, the TGI (SK-MEL-5 melanoma) was > 100 µM and the GI50 (TK-10 renal) was 30 µM. For the same compound, the TGI (TK-10 renal) was > 100 µM, the GI50 (RXF 393 renal) was 5.07 µM and the TGI (RXF 393 renal) was 19.9 µM. For the same compound, the GI50 (MDA-MB-231 breast) was 30.6 µM, the TGI (MDA-MB-231 breast) was > 100 µM and the GI50 (HCC-2998 colon) was 38.7 µM. The TGI (HCC-2998 colon) was > 100 µM, the GI50 (HS 578T breast) was 15.9 µM and the TGI (HS 578T breast) was > 71.8 µM. For the same compound, the GI50 (OVCAR-4 ovarian) was 23.2 µM, the TGI (OVCAR-4 ovarian) was > 100 µM and the GI50 (OVCAR-3 ovarian) was 59.1 µM. The TGI (OVCAR-3 ovarian) was > 100 µM, the GI50 (HCT-116 colon) was 13.3 µM and the TGI (HCT-116 colon) was > 100 µM. The GI50 (NCI/ADR-RES ovarian) was 32 µM, the TGI (NCI/ADR-RES ovarian) was > 100 µM and the GI50 (SK-MEL-28 melanoma) was 38.1 µM. For the same compound, the TGI (SK-MEL-28 melanoma) was > 100 µM, the GI50 (MOLT-4 leukemia) was 60.7 µM and the TGI (MOLT-4 leukemia) was > 100 µM. The GI50 (OVCAR-8 ovarian) was 30.5 µM, the TGI (OVCAR-8 ovarian) was > 100 µM and the GI50 (SNB-19 CNS) was 51.7 µM. The TGI (SNB-19 CNS) was > 100 µM, the GI50 (A498 renal) was 1850 nM and the TGI (A498 renal) was 13.1 µM. For the same compound, the GI50 (CAKI-1 renal) was 17.5 µM, the TGI (CAKI-1 renal) was > 100 µM and the GI50 (HOP-92 NSCLC) was 10.1 µM. The TGI (HOP-92 NSCLC) was 42.4 µM, the GI50 (K-562 leukemia) was 32.2 µM and the TGI (K-562 leukemia) was > 100 µM. For the same compound, the GI50 (IGROV1 ovarian) was 26.1 µM, the TGI (IGROV1 ovarian) was > 100 µM and the GI50 (A549 NSCLC) was 29.5 µM. For the same compound, the TGI (A549 NSCLC) was > 100 µM, the GI50 (SR leukemia) was 4.15 µM and the TGI (SR leukemia) was > 100 µM. The GI50 (786-0 renal) was 23.6 µM, the TGI (786-0 renal) was > 100 µM and the GI50 (MCF7 breast) was 8.71 µM. For the same compound, the TGI (MCF7 breast) was > 100 µM, the GI50 (EKVX NSCLC) was 56.8 µM and the TGI (EKVX NSCLC) was > 100 µM. For the same compound, the GI50 (HL-60(TB) leukemia) was 29.9 µM, the TGI (HL-60(TB) leukemia) was > 100 µM and the GI50 (SN12C renal) was 20.4 µM. The TGI (SN12C renal) was > 100 µM, the GI50 (UACC-62 melanoma) was 11.7 µM and the TGI (UACC-62 melanoma) was 88 µM. For the same compound, the GI50 (T-47D breast) was 22.8 µM, the TGI (T-47D breast) was > 100 µM and the GI50 (ACHN renal) was 20.4 µM. For the same compound, the TGI (ACHN renal) was > 100 µM, the GI50 (UO-31 renal) was 24.6 µM and the TGI (UO-31 renal) was > 100 µM. The GI50 (RPMI-8226 leukemia) was > 62 µM, the TGI (RPMI-8226 leukemia) was > 100 µM and the GI50 (DU-145 prostate) was 40.8 µM. For the same compound, the TGI (DU-145 prostate) was > 100 µM, the GI50 (OVCAR-5 ovarian) was 38.4 µM and the TGI (OVCAR-5 ovarian) was > 100 µM. For the same compound, the GI50 (NCI-H23 lung) was 23.1 µM, the TGI (NCI-H23 lung) was > 100 µM and the GI50 (KM12 colon) was 369 nM. For the same compound, the TGI (KM12 colon) was > 64.1 µM, the GI50 (HCT-15 colon) was 24.9 µM and the TGI (HCT-15 colon) was > 100 µM. For the same compound, the GI50 (HT29 colon) was 27.8 µM, the TGI (HT29 colon) was > 100 µM and the GI50 (PC-3 prostate) was 43.7 µM. For the same compound, the TGI (PC-3 prostate) was > 100 µM, the GI50 (NCI-H460 lung) was 22.2 µM and the TGI (NCI-H460 lung) was > 100 µM. For the same compound, the GI50 (SF-295 CNS) was 35.6 µM, the TGI (SF-295 CNS) was > 100 µM and the GI50 (SW-620 colon) was 22.6 µM. The TGI (SW-620 colon) was > 100 µM, the GI50 (SK-OV-3 ovarian) was 22.6 µM and the TGI (SK-OV-3 ovarian) was > 100 µM. The GI50 (CCRF-CEM leukemia) was 55.7 µM, the TGI (CCRF-CEM leukemia) was > 100 µM and the GI50 (NCI-H226 lung) was 1140 nM. For the same compound, the TGI (NCI-H226 lung) was 54.8 µM, the GI50 (UACC-257 melanoma) was 33.2 µM and the TGI (UACC-257 melanoma) was > 100 µM. For the same compound, the GI50 (MALME-3M melanoma) was 47.1 µM, the TGI (MALME-3M melanoma) was > 100 µM and the GI50 (U251 CNS) was 24.5 µM. For the same compound, the TGI (U251 CNS) was > 100 µM, the GI50 (LOX IMVI melanoma) was 13.8 µM and the TGI (LOX IMVI melanoma) was > 100 µM. For the same compound, the GI50 (NCI-H522 lung) was 21.1 µM, the TGI (NCI-H522 lung) was > 100 µM and the GI50 (MDA-MB-435) was 28.1 µM. The TGI (MDA-MB-435) was > 100 µM, the GI50 (SF-268 CNS) was 18.2 µM and the TGI (SF-268 CNS) was > 82.4 µM. It also gave a GI50 (SF-539 CNS) of 14.9 µM and a TGI (SF-539 CNS) of 58 µM.
